For one series, the system named is Escherichia coli 25922. Briefly: MIC against E. coli 25922 after incubation of the peptide with mouse serum, gastric juice, small intestinal juice or PBS. The class given is cell-based. To be noted: for MIC after incubation with gastric juice (GAJ), 1h: mouse gastric juice (stomach tissue + PBS pH 2.0, w/w 1:1, supernatant) mixed with peptide v/v 1:1, peptide 1.28 mM, MIC = lowest concentration killing >95% of cells; for MIC after incubation with serum, 1h / MIC after incubation with serum, 4h / MIC after incubation with serum, 8h: mouse serum mixed with peptide v/v 4:1, 1.28 mM; for Effect of the serum environment on antimicrobial activity: mouse serum, 1-8 h incubation, read-out MIC vs E. coli 25922; for MIC after incubation with small intestinal juice (SIJ), 1h: mouse small intestine contents + PBS pH 7.0 (w/w 1:9, supernatant) mixed with peptide v/v 1:1, 1.28 mM; for MIC after incubation in PBS2.0, 1h / MIC after incubation in PBS2.0, 4h / MIC after incubation in PBS2.0, 8h: phosphate-buffered saline pH 2.0, 37°C; for MIC after incubation in PBS7.0, 1h / MIC after incubation in PBS7.0, 4h / MIC after incubation in PBS7.0, 8h: phosphate-buffered saline pH 7.0, 37°C. On the procedure:
FIGURE 2 (a) Schematic diagram of the experimental scheme. Red and green arrows indicate the number of oral administrations and corresponding time points, respectively. (b) The experimental group design. (c) R7I MIC changes after incubation with serum, gastric juice, and small intestine fluid against Escherichia coli 25922. Minimum inhibitory concentrations (MICs, μM) were determined as the lowest peptide concentrations that killed greater than 95% of the bacterial cells. A value >64 indicates no detectable antibacterial activity at 64 μM. GAJ, gastric juice; SIJ, small intestinal juice; PBS2.0 and PBS7.0, phosphate‐buffered saline (pH = 2.0 or pH = 7.0); E. coli, Escherichia coli 25922 TEXT PRINTED IN THE PICTURE: (c) R7I + GAJ + E. coli: 1h: 2; 4h: 2; 8h: 2 | (c) R7I + SIJ + E. coli: 1h: 2; 4h: 4; 8h: 4 | (c) R7I + Serum + E. coli: 1h: 2; 4h: 2; 8h: 2 | (c) Melittin + GAJ + E. coli: 1h: >64; 4h: >64; 8h: >64 | (c) Melittin + SIJ + E. coli: 1h: >64; 4h: >64; 8h: >64 | (c) Melittin + Serum + E. coli: 1h: 4; 4h: 8; 8h: 8 | (c) R7I + PBS2.0 + E. coli: 1h: 2; 4h: 2; 8h: 2 | (c) R7I + PBS7.0 + E. coli: 1h: 2; 4h: 2; 8h: 2 | (c) Melittin + PBS2.0 + E. coli: 1h: 2; 4h: 2; 8h: 2 | (c) Melittin + PBS7.0 + E. coli: 1h: 2; 4h: 2; 8h: 2
The C57BL/6 male mice aged 6 weeks were provided by Liaoning Changsheng Biotechnology Co., Ltd., China and euthanized at 10:00 am. The serum was collected and mixed with R7I (v/v = 4:1) to give a final peptide concentration of 1.28 mM. The stomach (cut in half) and the contents of the entire small intestine of the mice were collected and placed in a sterile eppendorf tube. Sterile PBS was added to gastric tissue (w/w = 1:1, pH = 2.0) and small intestine contents (w/w = 1:9, pH = 7.0), and mixed thoroughly by shaking. The mixture was centrifuged to obtain the supernatant as gastric juice and small intestine juice. R7I was dissolved with the corresponding pH PBS. The prepared gastric and small intestine fluids were then mixed separately with R7I (v/v = 1:1) to give a final peptide concentration of 1.28 mM. Melittin was used here as a control. The peptide mixture was incubated in a 37°C incubator for 1, 4 and 8 h. Finally, the minimum inhibitory concentrations (MICs) test was performed to verify peptide activity with Escherichia coli 25922.[18]

For series [1] the following is noted: earlier research; cited from earlier work. From the text: Importantly, compared with other anti‐proteolytic peptides containing unnatural amino acids, R7I was completely composed of natural amino acids and had dramatic resistance to a high concentration of protease hyd ...
Series [2] concerns pepsin, trypsin, chymotrypsin, and proteinase K. The following applies: in vitro; cited from earlier work.
Series [3] relates to E. coli ATCC 25922 bacterial enteritis model in mice. As to the kind of experiment: Bacterial enteritis model: serum biochemical indices. Format: in vivo, C57BL/6 male mice. The following applies: other doses of R7I (30, 40 mg/kg) and colistin sulfate 20 mg/kg, oral. The method, then:
(§1) The mice were divided into six groups randomly: (1) the control group (E. coli + normal saline); the administration group (E. coli + R7I) is set to three concentration gradients: (2) 20 mg/kg, (3) 30 mg/kg, and (4) 40 mg/kg of body weight; (5) the antibiotic group (E. coli + colistin sulfate), 20 mg/kg of body weight; and (6) the blank group with only normal saline (Figure 2b).
(§2) The blank group was gavaged with 200 μl of saline, and all other groups were gavaged twice with E. coli ATCC 25922 (200 μl) once a day (d1‐2). R7I at different concentrations and colistin sulfate were given twice (12 h intervals) on the d3 and once on d4‐5 by oral administration. Correspondingly, an equal amount of saline was given to the blank and control groups in the same way. On day 6, all mice were euthanized by cervical dislocation under full anesthesia with isoflurane.
Serum biochemical indices of alanine aminotransferase (ALT), aspartate aminotransferase (AST), alkaline phosphatase (ALP), total bilirubin (TBIL), cholinesterase (CHE), creatinine (CREA), creatine kinase (CK), urea nitrogen (BUN), lactate dehydrogenase (LDH), total protein (TP), albumin (ALB), and globulin (GLB) were measured by the automatic biochemical analyzer (Roche, Cobus‐Mira‐Plus, Roche Diagnostic System Inc., Basel, Switzerland).

For series [4] the test system is unchanged. As to the kind of experiment: Bacterial enteritis model: antioxidant function of the liver. Format: in vivo, C57BL/6 male mice. To be noted: oral R7I (20, 30, 40 mg/kg) or colistin sulfate 20 mg/kg; vs control group; n = 6. The method, then:
as §1, §2
Total antioxidant capacity (T‐AOC), superoxide dismutase (SOD), glutathione peroxidase (GSH‐Px), malondialdehyde (MDA), and catalase (CAT) enzyme activities in the liver were determined using commercially available kits (Nanjing Jiancheng Bioengineering Institute, Nanjing, China) according to the manufacturer's instructions.

For series [5] the test system is unchanged. As to the kind of experiment: Bacterial enteritis model: serum D-lactic acid, diamine oxidase, SIgA (ELISA). To be noted: n = 6. The class given is in vivo, C57BL/6 male mice. On the procedure:
C57BL/6 male mice that were 6 weeks old were provided by Liaoning Changsheng Biotechnology Co., Ltd., China. All mice (20.00 ± 2.00 g, 6 weeks old) were randomly divided into 6 groups (n = 12), and they were fed adaptively for 3 days. During the whole experiment, mice can get clean water and a laboratory standard diet ad libitum, under controlled environmental conditions (40%–60% relative humidity, 25 ± 2°C temperature; lighting cycle, 12 h/d). The standard lab diet contained 18% crude protein, 4% crude fat, 5% crude fiber, 8% ash, and 10% moisture.
as §1
Based on the results of the pre‐experiment, we determined the appropriate concentration of the bacteria. The strain E. coli ATCC 25922 frozen at −20°C was incubated overnight in LB medium (37°C, 220r). The bacterial broth was transferred to a new LB medium at a ratio of 1:100 for 3–5 h to reach the logarithmic growth period. The bacterial precipitate was centrifuged and washed three times with saline to adjust the colony count to 2.0 × 10^9 CFU/ml.
as §2
To detect the content of diamine oxidase (DAO), D‐lactic acid, and secretory immunoglobulin A (SlgA) in serum, using mouse ELISA kit instruction (Alphabio, Tianjin, China).
Background: In an ELISA, binding on a coated surface is turned into a signal by an enzyme label.

Setting [6] is: mouse gastric juice (PBS pH 2.0, w/w 1:1) mixed with peptide v/v 1:1, 1.28 mM, 37°C, 4 h, then MIC vs E. coli 25922.
Where [7] appears, read: 37°C, then MIC vs E. coli 25922.
Setting [8] is: 37°C, 4 h, then MIC vs E. coli 25922.
Setting [9] is: 37°C, 8 h, then MIC vs E. coli 25922.
[10] abbreviates: mouse small intestine contents + PBS pH 7.0 (w/w 1:9) mixed with peptide v/v 1:1, 1.28 mM, 37°C, 8 h, then MIC vs E. coli 25922.
The mark [11] stands for this setting: oral R7I 20, 30, 40 mg/kg or colistin sulfate 20 mg/kg, vs control group, p < 0.05 in most treatment groups, best in 20 mg/kg R7I.

Values after ≈ are worked out from the molar mass of the structure shown. Ends that are not written are not given here. Some results are limits rather than exact numbers.

Take IRPIIRPIIRPIIRPIIRPIIRPIIRPI-NH2 [R7I]: in the series on Escherichia coli 25922 (setting [6]), the “MIC after incubation with gastric juice (GAJ), 4h” value came to 2 µM. In the series on Escherichia coli 25922 (setting [7]), the “MIC after incubation with gastric juice (GAJ), 1h” value was 2 µM; the “MIC after incubation with serum, 1h” value was determined as 2 µM; the “MIC after incubation with small intestinal juice (SIJ), 1h” value was 2 µM. For the same compound, the “MIC after incubation with serum, 4h” value against Escherichia coli 25922 (setting [8]) is 2 µM. Also, in the series on Escherichia coli 25922 (setting [9]), the “MIC after incubation with serum, 8h” value is 2 µM. In addition, the “Effect of the serum environment on antimicrobial activity” value in the series with Escherichia coli 25922 (37°C) was “no negative effect”. The “MIC after incubation with small intestinal juice (SIJ), 8h” value in the series on Escherichia coli 25922 (setting [10]) was 4 µM. In the series on Escherichia coli 25922 (then MIC vs E. coli 25922), the “MIC after incubation in PBS2.0, 1h” value amounted to 2 µM and the “MIC after incubation in PBS7.0, 1h” value is 2 µM. Further, in the series with Escherichia coli 25922 (4 h, then MIC vs E. coli 25922), the “MIC after incubation in PBS2.0, 4h” value was found to be 2 µM and the “MIC after incubation in PBS7.0, 4h” value came to 2 µM. In the series on Escherichia coli 25922 (8 h, then MIC vs E. coli 25922), the “MIC after incubation in PBS2.0, 8h” value worked out at 2 µM and the “MIC after incubation in PBS7.0, 8h” value turned out to be 2 µM. The Cytotoxicity result in series [1] is “low cytotoxicity”. Besides, in series [2], the “Resistance to pepsin, trypsin, chymotrypsin, and proteinase K” value was “excellent resistance”.
Take colistin sulfate: in series [3], the “Serum CREA level” value was “little effect (or even an increasing trend)” and the “Serum LDH level” value is reported as “little effect (or even an increasing trend)”. In series [3] (p < 0.05), the “Serum AST level” value is recorded as “decrease” and the “Serum TBIL level” value is “decrease”. For the same compound, the “Serum ALT level” value in series [3] (p > 0.05) is reported as “decrease”. Moreover, the “MDA levels in the liver” value in series [4] is given as “significantly dropped”. Further, in series [5] (setting [11]), the “Serum D-lactic acid (DLA) level” value is recorded as “significantly decreased” and the “Serum diamine oxidase (DAO) level” value is “significantly decreased”. The “Serum secreted immunoglobulin A (SlgA) level vs control group” value in series [5] (partial dose concentrations, oral) is on record as “raise secreted immunoglobulin A (SlgA) levels compared to the control group, without statistical significance”.
For the compound `CC[C@H](C)[C@H](NC(=O)CN)C(=O)NCC(=O)N[C@@H](C)C(=O)N[C@H](C(=O)N[C@@H](CC(C)C)C(=O)N[C@@H](CCCCN)C(=O)N[C@H](C(=O)N[C@@H](CC(C)C)C(=O)N[C@H](C(=O)N[C@H](C(=O)NCC(=O)N[C@@H](CC(C)C)C(=O)N1CCC[C@H]1C(=O)N[C@@H](C)C(=O)N[C@@H](CC(C)C)C(=O)N[C@H](C(=O)N[C@@H](CO)C(=O)N[C@@H](Cc1c[nH]c2ccccc12)C(=O)N[C@H](C(=O)N[C@@H](CCCCN)C(=O)N[C@@H](CCCNC(=N)N)C(=O)N[C@@H](CCCCN)C(=O)N[C@@H](CCCNC(=N)N)C(=O)N[C@@H](CCC(N)=O)C(=O)N[C@@H](CCC(N)=O)C(N)=O)[C@@H](C)CC)[C@@H](C)CC)[C@@H](C)O)[C@@H](C)O)C(C)C)C(C)C` [Melittin], the “MIC after incubation with gastric juice (GAJ), 4h” value against Escherichia coli 25922 (setting [6]) was more than 64 µM. In the series on Escherichia coli 25922 (mouse gastric juice (PBS pH 2.0, w/w 1:1) mixed with peptide v/v 1:1, 1.28 mM, 37°C, 8 h, then MIC vs E. coli 25922), the “MIC after incubation with gastric juice (GAJ), 8h” value is more than 64 µM. In the series with Escherichia coli 25922 (setting [7]), the “MIC after incubation with gastric juice (GAJ), 1h” value was more than 64 µM; the “MIC after incubation with serum, 1h” value was found to be 4 µM; the “MIC after incubation with small intestinal juice (SIJ), 1h” value is more than 64 µM. In the series on Escherichia coli 25922 (setting [8]), the “MIC after incubation with serum, 4h” value turned out to be 8 µM. For the same compound, the “MIC after incubation with serum, 8h” value against Escherichia coli 25922 (setting [9]) was determined as 8 µM. Besides, the “Effect of the serum environment on antimicrobial activity” value in the series on Escherichia coli 25922 (37°C) is listed as “slightly compromised”. Also, in the series with Escherichia coli 25922 (mouse small intestine contents + PBS pH 7.0 (w/w 1:9) mixed with peptide v/v 1:1, 1.28 mM, 37°C, 4 h, then MIC vs E. coli 25922), the “MIC after incubation with small intestinal juice (SIJ), 4h” value was more than 64 µM. Moreover, the “MIC after incubation with small intestinal juice (SIJ), 8h” value in the series with Escherichia coli 25922 (setting [10]) is more than 64 µM. For the same compound, in the series with Escherichia coli 25922 (then MIC vs E. coli 25922), the “MIC after incubation in PBS2.0, 1h” value turned out to be 2 µM (≈ 5.69 µg/mL) and the “MIC after incubation in PBS7.0, 1h” value was 2 µM (≈ 5.69 µg/mL). Moreover, in the series with Escherichia coli 25922 (4 h, then MIC vs E. coli 25922), the “MIC after incubation in PBS2.0, 4h” value was 2 µM (≈ 5.69 µg/mL) and the “MIC after incubation in PBS7.0, 4h” value came out at 2 µM (≈ 5.69 µg/mL). Moreover, in the series on Escherichia coli 25922 (8 h, then MIC vs E. coli 25922), the “MIC after incubation in PBS2.0, 8h” value is 2 µM (≈ 5.69 µg/mL) and the “MIC after incubation in PBS7.0, 8h” value came out at 2 µM (≈ 5.69 µg/mL). Moreover, in the series with Escherichia coli 25922 (small intestinal fluid, 1 min, unused data), the “Activity after incubation with small intestinal fluid for 1 min” value was “inactivated”.

Values taken from article PMC10013768, “The efficacy of anti‐proteolytic peptide R7I in intestinal inflammation, function, microbiota, and metabolites by multi‐omics analysis in murine bacterial enteritis” (Bioengineering & Translational Medicine, 2022).
